Measurements as given in the supplement of paper PMC10307832.

Legend:
Assay in all cases: relative viability (nuclei count vs DMSO), 5 days (fraction); higher = more cells survive
KIN001-266 + Tozasertib = compound: CCN1CCC(CC1)N2C=C(N=N2)CNC3=CC4=C(C(=CN=C4C(=C3)Cl)C#N)NC5=CC(=C(C=C5)F)Cl [KIN001-266] + Cc1cc(Nc2cc(N3CCN(C)CC3)nc(Sc3ccc(NC(=O)C4CC4)cc3)n2)n[nH]1 [Tozasertib] (partner 0.1 µM)
Summary of the method: (§1)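 Relative viability divides the nuclei count in treated wells by that in vehicle wells. Lung cancer cell lines were seeded in 1536-well plates, dosed by pin tool the next day, and fixed and stained after 5 days in one step with final 0.05% Triton X-100, 1% formaldehyde and 1 ug/ml Hoechst. Dosing was a single drug or a fixed anchor-drug dose plus five library-drug doses (not always all listed) in √10 steps, and values are medians of duplicate plates imaged at 4×.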

KIN001-266 + Foretinib = compound: CCN1CCC(CC1)N2C=C(N=N2)CNC3=CC4=C(C(=CN=C4C(=C3)Cl)C#N)NC5=CC(=C(C=C5)F)Cl [KIN001-266] + COc1cc2c(Oc3ccc(NC(=O)C4(C(=O)Nc5ccc(F)cc5)CC4)cc3F)ccnc2cc1OCCCN1CCOCC1 [Foretinib] (partner 0.25 µM)
Summary of the method: as §1

KIN001-266 + AZD7762 = compound: CCN1CCC(CC1)N2C=C(N=N2)CNC3=CC4=C(C(=CN=C4C(=C3)Cl)C#N)NC5=CC(=C(C=C5)F)Cl [KIN001-266] + NC(=O)Nc1cc(-c2cccc(F)c2)sc1C(=O)N[C@H]1CCCNC1 [AZD7762] (partner 0.2 µM)
Summary of the method: as §1

KIN001-266 + Luminespib = compound: CCN1CCC(CC1)N2C=C(N=N2)CNC3=CC4=C(C(=CN=C4C(=C3)Cl)C#N)NC5=CC(=C(C=C5)F)Cl [KIN001-266] + CCNC(=O)c1noc(-c2cc(C(C)C)c(O)cc2O)c1-c1ccc(CN2CCOCC2)cc1 [Luminespib] (partner 0.01 µM)
Summary of the method: as §1

Cell Line | relative viability (KIN001-266 + Tozasertib; first compound 0.08 µM) | relative viability (KIN001-266 + Tozasertib; first compound 0.253 µM) | relative viability (KIN001-266 + Tozasertib; first compound 0.8 µM) | relative viability (KIN001-266 + Tozasertib; first compound 2.53 µM) | relative viability (KIN001-266 + Tozasertib; first compound 8 µM) | relative viability (KIN001-266 + Foretinib; first compound 0.08 µM) | relative viability (KIN001-266 + Foretinib; first compound 0.253 µM) | relative viability (KIN001-266 + Foretinib; first compound 0.8 µM) | relative viability (KIN001-266 + Foretinib; first compound 2.53 µM) | relative viability (KIN001-266 + Foretinib; first compound 8 µM) | relative viability (KIN001-266 + AZD7762; first compound 0.08 µM) | relative viability (KIN001-266 + AZD7762; first compound 0.253 µM) | relative viability (KIN001-266 + AZD7762; first compound 0.8 µM) | relative viability (KIN001-266 + AZD7762; first compound 2.53 µM) | relative viability (KIN001-266 + AZD7762; first compound 8 µM) | relative viability (KIN001-266 + Luminespib; first compound 0.08 µM) | relative viability (KIN001-266 + Luminespib; first compound 0.253 µM) | relative viability (KIN001-266 + Luminespib; first compound 0.8 µM) | relative viability (KIN001-266 + Luminespib; first compound 2.53 µM) | relative viability (KIN001-266 + Luminespib; first compound 8 µM)
HCC-366 | 0.156 | 0.286 | 0.0999 | 0.127 | 0.111 | 0.961 | 0.955 | 0.916 | 0.905 | 0.851 | 0.552 | 0.361 | 0.175 | 0.26 | 0.175 |  |  |  |  | 
HCC-827 | 0.442 | 0.432 | 0.41 | 0.359 | 0.389 | 1.04 | 1.09 | 0.944 | 0.907 | 0.809 | 0.28 | 0.224 | 0.131 | 0.215 | 0.196 | 0.659 | 0.38 | 0.509 | 0.841 | 0.362
HOP-62 | 0.414 | 0.381 | 0.384 | 0.328 | 0.319 | 0.96 | 1.11 | 1.15 | 1.13 | 1.13 | 0.583 | 0.671 | 1.03 | 0.729 | 0.447 | 0.906 | 0.923 | 0.876 | 0.944 | 0.787
IA-LM |  |  |  |  |  | 1.03 | 1.17 | 1.41 | 1.19 | 0.891 |  |  |  |  |  |  |  |  |  | 
LC-2-ad | 0.451 | 0.409 | 0.516 | 0.444 | 0.447 | 0.964 | 1 | 0.904 | 0.972 | 0.787 | 0.8 | 0.867 | 0.777 | 0.863 | 0.636 | 0.943 | 1.19 | 1.13 | 1.06 | 0.931
LCLC-97TM1 | 0.196 | 0.209 | 0.186 | 0.171 | 0.223 | 0.983 | 0.914 | 0.903 | 0.888 | 0.909 | 0.339 |  | 0.281 |  | 0.212 | 0.953 | 0.77 | 0.643 | 0.603 | 0.24
NCI-H520 | 0.426 | 0.441 | 0.434 | 0.466 | 0.413 | 0.67 | 0.668 | 0.69 | 0.487 | 0.638 |  |  |  |  |  | 0.246 | 0.289 | 0.228 | 0.192 | 0.22
NCI-H522 | 0.562 | 0.498 | 0.566 | 0.502 | 0.594 |  |  |  |  |  | 0.951 | 0.85 | 0.786 | 0.822 | 0.79 | 1.09 | 1.19 | 0.99 | 0.912 | 1.05
NCI-H661 | 0.364 | 0.377 | 0.373 | 0.353 | 0.353 | 1.02 | 1 | 1.03 | 0.954 | 0.946 |  |  |  |  |  | 0.887 | 0.946 | 0.968 | 0.915 | 0.559
NCI-H1299 |  |  |  |  |  | 1.06 | 1.1 | 1.05 | 0.994 | 0.964 |  |  |  |  |  |  |  |  |  | 
NCI-H1563 |  |  |  |  |  | 0.925 | 0.862 | 0.941 | 0.985 | 0.904 |  |  |  |  |  | 0.496 | 0.498 | 0.534 | 0.602 | 0.524
NCI-H1648 | 0.711 | 0.513 | 0.436 | 0.558 | 0.485 |  |  |  |  |  | 0.721 | 0.713 | 0.518 | 0.572 | 0.669 |  |  |  |  | 
NCI-H1650 | 0.564 | 0.406 | 0.372 | 0.263 | 0.162 | 1.25 | 0.951 | 0.947 | 0.773 | 0.476 |  |  |  |  |  | 0.193 | 0.207 | 0.196 | 0.177 | 0.203
NCI-H1703 |  |  |  |  |  | 0.367 |  | 0.37 | 0.359 | 0.366 |  |  |  |  | 0.112 |  |  |  |  | 
NCI-H1792 |  |  |  |  |  |  |  |  |  |  | 0.825 | 0.66 | 0.738 | 0.902 | 0.516 | 0.414 | 0.381 | 0.403 | 0.628 | 0.486
NCI-H2009 | 0.788 | 0.704 | 0.808 | 0.674 | 0.386 | 1.15 | 1.16 | 1.28 | 1.23 | 1.03 |  |  |  |  |  | 1.04 | 0.969 | 1.05 | 0.983 | 0.881
NCI-H2023 | 0.39 | 0.341 | 0.419 | 0.292 | 0.184 | 0.837 | 0.959 | 1.02 | 0.919 | 0.556 |  |  |  |  |  | 0.738 | 0.698 | 0.764 | 0.696 | 0.865
NCI-H2228 | 0.312 | 0.255 | 0.266 | 0.192 | 0.264 | 0.76 | 0.733 | 0.82 | 0.89 | 0.602 |  |  |  |  |  | 0.136 | 0.13 | 0.145 | 0.172 | 0.112
SK-LU-1 | 0.403 | 0.375 | 0.322 | 0.307 | 0.286 | 0.844 | 0.824 | 0.84 | 0.814 | 0.486 |  |  |  |  |  | 0.206 | 0.215 | 0.223 | 0.22 | 0.189
SK-MES-1 | 0.944 | 0.869 | 0.934 | 0.756 | 0.66 | 0.845 | 0.884 | 0.828 | 0.885 | 0.828 |  |  |  |  |  | 0.783 | 0.779 | 1.06 | 0.739 | 0.427
SW 1573 | 0.219 | 0.186 | 0.162 | 0.184 | 0.224 | 0.989 | 0.787 | 1.02 | 0.915 | 0.855 |  |  |  |  |  | 0.268 | 0.272 | 0.195 | 0.238 | 0.211
UMC-11 | 0.209 | 0.215 | 0.213 | 0.219 | 0.213 | 1.08 | 1.07 | 1.12 | 0.945 | 0.684 |  |  |  |  |  | 0.986 | 0.977 | 1.03 | 0.937 | 0.449
